{"source": "patent US20240425470A1", "about": "“S[…] AMINE MODULATORS OF MONOAMINERGIC TRANSPORTERS” (ATAI Life Sciences AG, priority 2023, published 2024)", "format_in_all_cases": "cell-based", "key": {"[1]": {"molecular_target": "Dopamine transporter (DAT) (Homo sapiens (Human), UniProt Q01959)", "assay": "Dopamine transporter (DAT) uptake inhibition, [3H]-dopamine uptake in HEK cells", "conditions": "HEK cells expressing recombinant DAT; [3H]-dopamine 20 nM", "protocol": "(§1) Dopamine transporter (DAT) Uptake Inhibition: Compound activity was assessed using a convenient in vitro assay. Briefly, HEK cells expressing recombinant DAT were plated at 50,000 cells/well on a 96 well plate pre-coated with Matrigel one day prior to the experiment. Culture medium (DMEM/FBS) was removed and 30 μl of assay buffer (Tris-HCl 50 mM, EDTA 4 mM, BDA 0.1%) with the desired concentration of test compound was added. The plate was incubated at 37° C. for 15 minutes. Assay buffer (30 μl) containing the same concentration of compound diluted in [3H]-Dihydroxyphenylethylamine (dopamine) uptake buffer (final concentration 20 nM) was added to each well and the plate was incubated at 37° C. for 5 minutes. The reaction mixture was removed, and the cells were washed with 100 μl ice-cold assay buffer twice. Lysis buffer (50 μl) was added to the cells followed by a 5 minute incubation with gentle shaking at room temperature. The lysate was transferred to a 96 well isoplate. Optiphase supermix (100 μl) was added to each well with complete mixing. Radioactivity was counted with Microbeta Counter and reported as CPM. Nomifensine was used as a control to measure non-specific uptake and for data normalization. Percent inhibition of [3H]-Dopamine uptake calculations: 100×(1−(CPMtest sample−CPMnon-specific uptake)/(CPMMAX−CPMMIN))."}, "[2]": {"molecular_target": "Norepinephrine transporter (NET) (Homo sapiens (Human), UniProt P23975)", "assay": "Norepinephrine transporter (NET) uptake inhibition, [3H]-Norepinephrine uptake in HEK cells", "conditions": "HEK cells expressing recombinant NET; [3H]-Norepinephrine 20 nM", "protocol": "as §1, with “Norepinephrine” for “Dopamine”, “(NET)” for “(DAT)”, “NET” for “DAT”, “[3H]-Norepinephrine” for “[3H]-Dihydroxyphenylethylamine (dopamine)”, “Desipramine” for “Nomifensine”, “[3H]-Norepinephrine” for “[3H]-Dopamine”"}, "[3]": {"molecular_target": "Serotonin transporter (SERT) (Homo sapiens (Human), UniProt P31645)", "assay": "Serotonin transporter (SERT) uptake inhibition, [3H]-Serotonin uptake in HEK cells", "conditions": "HEK cells expressing recombinant SERT, [3H]-Serotonin 10 nM; for inhibition at 10 µM / inhibition at 100 µM: HEK293; for inhibition at 10 µM: 10 μM test compound; for inhibition at 100 µM: 100 μM test compound", "protocol": "Serotonin transporter (SERT) Uptake Inhibition: Compound activity was assessed using an in vitro assay. Briefly, HEK cells expressing recombinant SERT were plated at 50,000 cells/well on a 96 well plate pre-coated with Matrigel one day prior to the experiment. Culture medium (DMEM/FBS) was removed from each well, and 30 μl of assay buffer (Tris-HCl 50 mM, EDTA 4 mM, BDA 0.1%) with the desired concentration of test compound was added. The plate was incubated at 37° C. for 15 minutes. Assay buffer (30 μl) containing the same concentration of compound diluted in [3H]-Serotonin uptake buffer (final concentration 10 nM) was added to each well and the plate was incubated at 37° C. for 5 minutes. The reaction mixture was removed, and the cells were washed (2×) with 100 μl ice-cold assay buffer. Lysis buffer (50 μl) was added to the cells followed by a 5 minute incubation with gentle shaking at room temperature. The lysate was transferred to a 96 well isoplate. Optiphase supermix (100 μl) was added to each well and was thoroughly mixed. Radioactivity was counted with Microbeta Counter and reported as counts per minute (CPM). Fluoxetine was used as a control to measure non-specific uptake and for data normalization. Percent inhibition of [3H]-Serotonin uptake is based on the calculation: 100×(1−(CPMtest sample−CPMnon-specific uptake)/(CPMMAX−CPMMIN))."}}}
{"smiles": "CC(N)Cc1ccc2occ(F)c2c1", "note": "(stereo not drawn) [Compound 1, 1-(3-fluorobenzofuran-5-yl)propan-2-amine]", "values": [{"measurement": "IC50", "setting": "[1]", "result": 15.6, "unit": "µM"}, {"measurement": "IC50", "setting": "[2]", "result": 4.73, "unit": "µM"}, {"measurement": "inhibition at 10 µM", "setting": "[3]", "result": 72.7, "unit": "%"}, {"measurement": "inhibition at 100 µM", "setting": "[3]", "result": 97.9, "unit": "%"}, {"measurement": "IC50", "setting": "[3]", "result": 6.75, "unit": "µM"}]}
{"smiles": "CNC(C)Cc1ccc2occ(F)c2c1", "note": "(stereo not drawn) [Compound 2, 1-(3-fluorobenzofuran-5-yl)-N-methylpropan-2-amine]", "values": [{"measurement": "IC50", "setting": "[1]", "result": 9.59, "unit": "µM"}, {"measurement": "IC50", "setting": "[2]", "result": 5.02, "unit": "µM"}, {"measurement": "inhibition at 10 µM", "setting": "[3]", "result": 64.7, "unit": "%"}, {"measurement": "inhibition at 100 µM", "setting": "[3]", "result": 99, "unit": "%"}, {"measurement": "IC50", "setting": "[3]", "result": 5.72, "unit": "µM"}]}
{"smiles": "CNC(C)Cc1ccc2c(c1)OCO2", "note": "(stereo not drawn) [MDMA, 3,4-Methylenedioxymethamphetamine, reference compound]", "values": [{"measurement": "IC50", "setting": "[1]", "result": 5.25, "unit": "µM"}, {"measurement": "IC50", "setting": "[2]", "result": 1.42, "unit": "µM"}, {"measurement": "inhibition at 10 µM", "setting": "[3]", "result": 53.3, "unit": "%"}, {"measurement": "inhibition at 100 µM", "setting": "[3]", "result": 98, "unit": "%"}, {"measurement": "IC50", "setting": "[3]", "result": 3.35, "unit": "µM"}]}
